According to patent US20240067651A1 (Biohaven Therapeutics Ltd., priority 2019, published 2024):
Where two headings read alike, the source gives them in different places. Each block holds one molecule with its values, some of them ahead of it.

Legend:
[1] = Stability in Simulated Gastric Fluid (SGF); assay type: in vitro ADME; parameters: key: % parent compound remaining relative to 0-minute sample
Outline: (§1)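 2 μg/mL final; SGF + pepsin pH 1.2 or SIF + pancreatin pH 6.8; 37° C, 150 rpm, 0–60 min. ACN quench with propranolol IS, LC-MS/MS. % parent vs 0 min; t1/2 from ln plot.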

[2] = Stability in Simulated Intestinal Fluid (SIF); assay type: in vitro ADME; parameters: key: % parent compound remaining relative to 0-minute sample
Outline: as §1

Plasma Stability = assay type: in vitro ADME, human
Outline: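 Parent compound quantified by LC-MS/MS after acetonitrile precipitation, reported as percent of control remaining (triplicate). Incubation: 1 hour, 37° C, fresh human plasma, compound at 1 μM.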

Caco-2 monolayer = assay: Caco-2 Permeability Assay; assay type: in vitro ADME, human
Outline: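 Bidirectional transport at 37 °C for 90 min, 10 μM donor concentration, with or without Pgp inhibitor, across 21-day Caco-2 monolayers with TEER >600 […] in HEPES-buffered HBSS, pH 7.4. LC-MS/MS of donor and receiver samples gives Papp, B→A/A→B efflux ratio and mass recovery.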

[3] = simulated gastric fluid, remaining at 1 h
[4] = simulated intestinal fluid, remaining at 1 h
[5] = % remaining at 1 h in simulated gastric fluid
[6] = % remaining at 1 h in simulated intestinal fluid
[7] = % remaining at 1 h in human plasma
[8] = % remaining after 1 h in simulated gastric fluid
[9] = % remaining after 1 h in simulated intestinal fluid
[10] = % remaining after 1 h in human plasma

Molecule: (2R)-2-{[(tert-butoxy)carbonyl]amino}-4-methyl-N-[2-(2-{[{{4-oxo-1-[2-(propan-2-yloxy)ethyl]-2-sulfanylidene-1H,2H,3H,4H,5H-pyrrolo[3,2-d]pyrimidin-5-yl}methoxy)carbonyl]oxy}ethoxy)eth-yl]pentanamide [Example 385]
- SGF [1, 3]: 94% remaining
- SIF [2, 4]: 84% remaining
- human Plasma stability (Plasma Stability; human plasma, remaining at 1 h): 1% remaining
- Caco-2 Papp (Caco-2 monolayer; Caco-2 monolayer): 38.7 nm/s

Molecule: CC(C)OCCn1c(=S)[nH]c(=O)c2c1ccn2COC(=O)CCCCNC(=O)CN.O=C(O)C(F)(F)F [Example 15, trifluoroacetic acid {4-oxo-1-[2-(propan-2-yloxy)ethyl]-2-sulfanylidene-1H,2H,3H,4H,5H-pyrrolo[3,2-d]pyrimidin-5-yl} methyl 5-(2-aminoacetamido)pentanoate]
- SGF [1, 5]: 100%
- SIF [2, 6]: 4% remaining
- human Plasma stability (Plasma Stability; [7]): 9% remaining
- Caco-2 Papp (Caco-2 monolayer; Caco-2 monolayer): >5.67 nm/s

Molecule: CC(C)OCCn1c(SCOC(=O)CCCCOC(=O)CNC(=O)OC(C)(C)C)nc(=O)c2c1ccn2COC(=O)CCCCOC(=O)CNC(=O)OC(C)(C)C [Example 329, ({5-[{{5-[(2-{[(tert-butoxy)carbonyl]amino}acetyl)oxy]pentanoyl}oxy)methyl]-4-oxo-1-[2-(propan-2-yloxy)ethyl]-1H,4H,5H-pyrrolo[3,2-d]pyrimidin-2-yl}sulfanyl)methyl 5-[(2-{[(tert-butoxy)carbonyl]amino}acetyl)oxy] pentanoate]
- SGF ([1]; % remaining @ 1 h): 95% @ 1 h
- SIF ([2]; % remaining @ 1 h): 35% @ 1 h
- human Plasma stability (Plasma Stability; % remaining @ 1 h): 1% @ 1 h
- Caco-2 Papp (Caco-2 monolayer): 59.6 nm/s

Molecule: CCN(C)C(=O)OCSc1nc(=O)c2c(ccn2COC(=O)N(C)CC)n1CCOC(C)C.O=C(O)C(F)(F)F [Example 169, trifluoroacetic acid {2-[{{[ethyl(methyl)carba-moyl]oxy}methyl)sulfanyl]-4-oxo-1-[2-(propan-2-yloxy)ethyl]-1H,4H,5H-pyrrolo[3,2-d]pyrimidin-5-yl}methyl N-ethyl-N-methylcarbamate]
- SGF ([1]; % @ 1 h (remaining) in simulated gastric fluid): 99% @ 1 h
- SIF ([2]; % @ 1 h (remaining) in simulated intestinal fluid): 81% @ 1 h
- human Plasma stability (Plasma Stability; % @ 1 h (remaining) in human plasma): 89% @ 1 h
- Caco-2 Papp (Caco-2 monolayer; Caco-2 monolayer): 109 nm/s

- SGF ([1]; % remaining at 1 h, SGF with pepsin pH 1.2, 2 μg/mL, 37° C.): 90%
- SIF ([2]; % remaining at 1 h, SIF with pancreatin pH 6.8, 2 μg/mL, 37° C.): 76%
- human Plasma stability (Plasma Stability; % remaining at 1 h, human plasma, 1 μM, 37° C.): 97%
- Caco-2 Papp (Caco-2 monolayer; donor 10 μM, 90 minutes, 37° C., direction not given): 140 nm/s
Molecule: CC(C)OCCn1c(=S)[nH]c(=O)c2c1ccn2COC(=O)[C@H]1CCCN1C(=O)OCC1c2ccccc2-c2ccccc21 [Example 5, 1-(9H-fluoren-9-ylmethyl) 2-{4-oxo-1-[2-(propan-2-yloxy)ethyl]-2-sulfanylidene-1H, 2H,3H,4H,5H-pyrrolo[3,2-d]pyrimidin-5-yl}methyl(2R)-pyrrolidine-1,2-dicarboxylate]

Molecule: CC(C)OCCn1c(=S)[nH]c(=O)c2c1ccn2COC(=O)CCNC(=O)[C@@H]1CCC(=O)N1C(=O)OCc1ccccc1.O=C(O)C(F)(F)F [Example 17, trifluoroacetic acid benzyl (5S)-2-oxo-5-{[3-oxo-3-({4-oxo-1-[2-(propan-2-yloxy)ethyl]-2-sulfanylidene-1H,2H,3H,4H,5H-pyrrolo[3,2-d]pyrimidin-5-yl}methoxy)propyl]carbamoyl} pyrrolidine-1-carboxylate]
- SGF [1, 5]: 99% remaining
- SIF [2, 6]: 3% remaining
- human Plasma stability (Plasma Stability; [7]): 38% remaining
- Caco-2 Papp (Caco-2 monolayer; Caco-2 monolayer): 3.68 nm/s

Molecule: bis (trifluoroacetic acid) 5-{[2-({[(5-{[(2S)-2-amino-4-methylpentanoyl]oxy}penta-noyl)oxy]methyl}sulfanyl)-4-oxo-1-[2-(propan-2-yloxy)ethyl]-1H,4H,5H-pyrrolo[3,2-d]pyrimidin-5-yl]methoxy}-5-oxopentyl (2S)-2-amino-4-methylpentanoate [Example 346]
- SGF ([1]; % remaining @ 1 h): 97% remaining
- SIF ([2]; % remaining @ 1 h): 7% remaining
- human Plasma stability (Plasma Stability; % remaining @ 1 h): 98% remaining
- Caco-2 Papp (Caco-2 monolayer; Caco-2): <0.623 nm/s

Molecule: CC(C)OCCn1c(=S)n(COC(=O)CCCOC(=O)[C@H](NC(=O)OC(C)(C)C)C(C)C)c(=O)c2c1ccn2COC(=O)CCCOC(=O)[C@H](NC(=O)OC(C)(C)C)C(C)C [Example 359, (((1-(2-isopropoxyethyl)-4-oxo-2-thioxo-1,4-dihydro-3H-pyrrolo[3,2-d]pyrimidine-3,5(2H)-diyl)bis(methylene))bis(oxy))bis(4-oxobutane-4,1-diyl) (2R,2′R)-bis(2-((tert-butoxycarbonyl)amino)-3-methylbutanoate)]
- SGF [1, 3]: 99% remaining
- SIF [2, 4]: 41% remaining
- human Plasma stability (Plasma Stability; human plasma, remaining at 1 h): 8% remaining
- Caco-2 Papp (Caco-2 monolayer; Caco-2 monolayer): <2.97 nm/s

- SGF [1, 8]: 98% remaining
- SIF [2, 9]: 54% remaining
- human Plasma stability (Plasma Stability; [10]): 0% remaining
- Caco-2 Papp (Caco-2 monolayer; Caco-2 monolayer): 4.77 nm/s
Molecule: CC(C)OCCn1c(=S)n(COC(=O)OCCOCCOC(N)=O)c(=O)c2[nH]ccc21 [Example 403, 3-{[{{2-[2-(carbamoyloxy)ethoxy]ethoxy}car-bonyl)oxy]methyl}-1-[2-(propan-2-yloxy)ethyl]-2-sulfanylidene-1H,2H,3H,4H,5H-pyrrolo[3,2-d]pyrimidin-4-one]

Molecule: {4-oxo-1-[2-(propan-2-yloxy)ethyl]-2-sulfanylidene-1H,2H,3H,4H,5H-pyrrolo[3,2-d]pyrimidin-5-yl}methyl 2-[2-(2-{[(tert-butoxy)carbonyl]amino}acetamido)-N-methylacetamido]acetate [Example 407]
- SGF [1, 8]: 98% remaining
- SIF [2, 9]: 1% remaining
- human Plasma stability (Plasma Stability; [10]): 0% remaining
- Caco-2 Papp (Caco-2 monolayer; Caco-2 monolayer): 146 nm/s

- SGF ([1]; simulated gastric fluid, bare number, unit or time not given): 98
- SIF ([2]; simulated intestinal fluid, bare number, unit or time not given): 96
- human Plasma stability (Plasma Stability; human plasma, remaining at 1 h): 93% remaining
- Caco-2 Papp (Caco-2 monolayer; Caco-2 monolayer): 0.903 nm/s
Molecule: CC(C)OCCn1c(=S)[nH]c(=O)c2c1ccn2C(=O)NCCOCCNC(=O)[C@H](NC(=O)OC(C)(C)C)C(C)C [Example 378, tert-butyl N-[(1R)-2-methyl-1-({2-[2-({4-oxo-1-[2-(propan-2-yloxy)ethyl]-2-sulfanylidene-1H,2H,3H,4H,5H-pyrrolo[3,2-d]pyrimidine-5-carbonyl}amino)ethoxy]ethyl}carba-moyl)propyl]carbamate]

Molecule: 5-{[2-({[(5-{[(2R)-2-{[(tert-butoxy)carbonyl]amino}-4-methylpentanoyl]oxy}penta-noyl)oxy]methyl}sulfanyl)-4-oxo-1-[2-(propan-2-yloxy)ethyl]-1H,4H,5H-pyrrolo[3,2-d]pyrimidin-5-yl]methoxy}-5-oxopentyl (2R)-2-{[(tert-butoxy)carbonyl]amino}-4-methylpentanoate [Example 348]
- SGF [1, 3]: 88% remaining
- SIF [2, 4]: 20% remaining
- human Plasma stability (Plasma Stability; human plasma, remaining at 1 h): 33% remaining
- Caco-2 Papp (Caco-2 monolayer; Caco-2 monolayer): <0.965 nm/s

Molecule: (2R)-2-amino-N-[2-(2-{[{{4-oxo-1-[2-(propan-2-yloxy)ethyl]-2-sulfanylidene-1H,2H,3H,4H,5H-pyrrolo[3,2-d]pyrimidin-5-yl}methoxy)carbonyl]oxy}ethoxy)eth-yl]-3-phenylpropanamide; trifluoroacetic acid [Example 388]
- SGF [1, 3]: 97% remaining
- SIF [2, 4]: 73% remaining
- human Plasma stability (Plasma Stability; human plasma, remaining at 1 h): 1% remaining
- Caco-2 Papp (Caco-2 monolayer; Caco-2 monolayer): <19.9 nm/s

Molecule: trifluoroacetic acid {4-oxo-1-[2-(propan-2-yloxy)ethyl]-2-sulfanylidene-1H,2H,3H,4H,5H-pyrrolo[3,2-d]pyrimidin-5-yl}methyl (2R)-1-[2-(2-aminoacetamido)acetyl]pyrrolidine-2-carboxylate [Example 406]
- SGF [1, 8]: 88% remaining
- SIF [2, 9]: 71% remaining
- human Plasma stability (Plasma Stability; [10]): 0% remaining
- Caco-2 Papp (Caco-2 monolayer; Caco-2 monolayer): 34.2 nm/s
